Reference: patent US11612605B2, “(+)-azasetron for use in the treatment of ear disorders” (SENSORION, priority 2016, dated 2023)
Like-named read-outs stand apart in the source and are kept apart here.

Experiment: Pharmacokinetics study: exposure in inner ear, perilymph and tail plasma after single oral dose
Assay type: in vivo, Wistar rats
Details: for Total AUC Inner ear / Total AUC Perilymph / Total AUC Tail plasma / concentration at 15 min / concentration at 30 min / concentration at 60 min / concentration at 120 min / concentration at 240 min / concentration at 480 min: 10 mg/kg p.o. single dose; for concentration at 15 min / concentration at 30 min / concentration at 60 min / concentration at 120 min / concentration at 240 min / concentration at 480 min / AUC: male, Wistar, rat; for concentration at 15 min / concentration at 30 min / concentration at 60 min / concentration at 120 min / concentration at 240 min / concentration at 480 min: oral, read-out: Average Inner ear concentration (ng azasetron free-base/g tissue); for AUC: po, 10 mg/kg, 10 mg/kg p.o., per-interval AUC of azasetron free-base
Text: The 72 male Wistar rats received on 28 Jan. 2016 from Janvier (Janvier, Le Genest-St-Isle) were assigned to the study. They were divided in 3 groups of 24 animals each, one group per test article. Each group was divided in […] subgroups according to the 6-termination time-points.
72 Wistar rats were subjected to oral single dose administration of the test article, racemic azasetron hydrochloride, azasetron hydrochloride (+) or azasetron hydrochloride (−), and sacrificed at different time-points to assess the exposure of the test article in the inner ear, perilymph, and plasma. • Group racemic azasetron: 24 male Wistar, 4 rats per time-point: 10 mg/kg azasetron HCl dissolved in NaCl 0.9%. Administrated as 5 mL/kg p.o.; • Group azasetron (+): 24 male Wistar, 4 rats per time-point: 10 mg/kg (+)-azasetron HCl dissolved in NaCl 0.9%. Administrated as 5 mL/kg p.o.; • Group azasetron (−): 24 male Wistar, 4 rats per time-point: 10 mg/kg (−)-azasetron HCl dissolved in NaCl 0.9%. Administrated as 5 mL/kg p.o.
There were 6 termination time-points for each test article. At time-points 15/30/60/120/240/480 minutes after administration: peripheral plasma from the tail was sampled. The animals were sacrificed by i.v. administration of 0.25 mL/rat of a 160 mg/mL pentobarbital solution. Following sacrifice, the heart blood and both tympanic bullas (left and right) were sampled.
Both tympanic bullas (left and right) were collected, however, only the left one was used for the perilymph and inner ear analysis. The right bulla was stored at −20° C. for future needs when required. For animal IDs 1 and 4, the right bulla was used for the sampling of perilymph and inner ear.
The left bulla was dissected fresh. Briefly, the bulla was opened via the auditory opening to reveal the bone surrounding the cochlea after which the tip of the bone was removed with forceps and a 10 μL pipette tip was inserted to withdraw perilymph.
Upon exposure of the tip of the cochlea, 2 μL of perilymph (fluid) could be recovered from the bulla. The perilymph was brought to 10 μL by the addition of 8 μL water, and then extract via the addition of 30 μL of acetonitrile. After that, the samples were centrifuged and the supernatant was transferred to a glass vial appropriate for the HPLC-MS auto-sampler.
Following recovering of the perilymph, the bones of the inner ear and cochlea components were removed with fine forceps and added to a tared Eppendorf tube. The collection was weighed and brought to 10 mg with the addition of water and placed on ice until extraction. 30 μL of acetonitrile was added and the tubes were incubated in an ultrasound bath, after which they were centrifuged and the supernatant was transferred to a glass vial appropriate for the HPLC-MS auto-sampler. In the process or removing the bones of the inner ear, they were finely distributed in the media and broken by forceps. (Due to the very low volume of the tissue and its fine structure, separate grinding is considered risky vs the potential losses to plastic and media. The materials are very fine in nature and the bone particles are small thus providing only short interfaces to media. The absence of fat and the incubation in solvent is intended to provide sufficient solubility of active ingredient).
The acetonitrile used in the sample preparation for bio-analysis contained the internal standard for the HPLC-MS analysis.
30 μL acetonitrile including the internal standard were added to each 10 μL plasma sample. After adding the acetonitrile, the samples were mixed by vortex and further centrifuged. The supernatant was transferred to a glass vial appropriate for the HPLC-MS auto-sampler.
The LC system comprised an Agilent 1260 liquid chromatography equipped with a binary pump and a column oven, together with a PAL HTS-xt auto-sampler. It is linked to the AB SCIEX TRIPLE QUADTM 4500 (triple-quadrupole) instrument with an ESI interface and a switching valve integrated (Mass spectrometric analysis). […]

[1] = inner ear, Time 15 (min), read-out: Inner ear AUC (converted)
[2] = inner ear, Time 30 (min), read-out: Inner ear AUC (converted)
[3] = inner ear, Time 60 (min), read-out: Inner ear AUC (converted)
[4] = inner ear, Time 120 (min), read-out: Inner ear AUC (converted)
[5] = inner ear, Time 240 (min), read-out: Inner ear AUC (converted)
[6] = inner ear, Time 480 (min), read-out: Inner ear AUC (converted)
[7] = perilymph, Time 15 (min), read-out: Perilymph AUC (converted)
[8] = perilymph, Time 30 (min), read-out: Perilymph AUC (converted)
[9] = perilymph, Time 60 (min), read-out: Perilymph AUC (converted)
[10] = perilymph, Time 120 (min), read-out: Perilymph AUC (converted)
[11] = perilymph, Time 240 (min), read-out: Perilymph AUC (converted)
[12] = perilymph, Time 480 (min), read-out: Perilymph AUC (converted)
[13] = tail plasma, Time 15 (min), read-out: Tail plasma AUC (converted)
[14] = tail plasma, Time 30 (min), read-out: Tail plasma AUC (converted)
[15] = tail plasma, Time 60 (min), read-out: Tail plasma AUC (converted)
[16] = tail plasma, Time 120 (min), read-out: Tail plasma AUC (converted)
[17] = tail plasma, Time 240 (min), read-out: Tail plasma AUC (converted)
[18] = tail plasma, Time 480 (min), read-out: Tail plasma AUC (converted)

SMILES	Total AUC Inner ear	Total AUC Perilymph	Total AUC Tail plasma	concentration at 15 min (inner ear, Time 15 (min))	concentration at 30 min (inner ear, Time 30 (min))	concentration at 60 min (inner ear, Time 60 (min))	concentration at 120 min (inner ear, Time 120 (min))	concentration at 240 min (inner ear, Time 240 (min))	concentration at 480 min (inner ear, Time 480 (min))	AUC [1]	AUC [2]	AUC [3]	AUC [4]	AUC [5]	AUC [6]	AUC [7]	AUC [8]	AUC [9]	AUC [10]	AUC [11]	other results
CN1C(=O)COc2c(C(=O)NC3CN4CCC3CC4)cc(Cl)cc21 (racemic) [Racemic azasetron, N-(1-azabicyclo[2.2.2]octan-8-yl)-6-chloro-4-methyl-3-oxo-1,4-benzoxazine-8-carboxamide]	43592 nM·min	25873 nM·min	177194 nM·min	25 ng/g	61 ng/g	63 ng/g	35 ng/g	37 ng/g	7 ng/g	0.0119 µM·h	0.0336 µM·h	0.0887 µM·h	0.14 µM·h	0.204 µM·h	0.248 µM·h	0.0183 µM·h	0.0328 µM·h	0.0455 µM·h	0.0635 µM·h	0.117 µM·h	AUC [12]: 0.154 µM·h; AUC [13]: 0.168 µM·h; AUC [14]: 0.263 µM·h; AUC [15]: 0.309 µM·h; AUC [16]: 0.374 µM·h; AUC [17]: 0.758 µM·h; AUC [18]: 1.08 µM·h
CN1C(=O)COc2c(C(=O)N[C@H]3CN4CCC3CC4)cc(Cl)cc21 [(+)-azasetron]	69036 nM·min	40910 nM·min	210768 nM·min	57 ng/g	86 ng/g	93 ng/g	79 ng/g	52 ng/g	6 ng/g	0.0204 µM·h	0.051 µM·h	0.127 µM·h	0.246 µM·h	0.375 µM·h	0.331 µM·h	0.0194 µM·h	0.0297 µM·h	0.0517 µM·h	0.129 µM·h	0.227 µM·h	AUC [12]: 0.225 µM·h; AUC [13]: 0.0983 µM·h; AUC [14]: 0.192 µM·h; AUC [15]: 0.35 µM·h; AUC [16]: 0.622 µM·h; AUC [17]: 1.11 µM·h; AUC [18]: 1.14 µM·h; exposure (total AUC) to azasetron in the perilymph, inner ear, and plasma versus racemic azasetron or (−)-azasetron (single equivalent oral dose (10 mg/kg)): greater exposure (total AUC)
